Results: patent US10806785B2, “Immunomodulator compounds and methods of use” (Incyte Corporation, priority 2016, dated 2020)

Target: PD-1/PD-L1 (Homo sapiens (Human), UniProt Q9NZQ7)
Assay: PD-1/PD-L1 binding assay (HTRF)
In short: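 Fc-tagged human PD-1 (25-167) and His-tagged PD-L1 (19-238), listed as […] and 10 nM final, preincubated 40 min with inhibitors in PBS pH 7.4, 0.05% Tween-20, 0.1% BSA, 1% DMSO, 25 °C. Eu anti-IgG/APC anti-His added, 60 min, 665/620 nm HTRF ratio; IC50 fitted from percent control activity.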

Chain of PD-1/PD-L1 (Q9NZQ7 19-238): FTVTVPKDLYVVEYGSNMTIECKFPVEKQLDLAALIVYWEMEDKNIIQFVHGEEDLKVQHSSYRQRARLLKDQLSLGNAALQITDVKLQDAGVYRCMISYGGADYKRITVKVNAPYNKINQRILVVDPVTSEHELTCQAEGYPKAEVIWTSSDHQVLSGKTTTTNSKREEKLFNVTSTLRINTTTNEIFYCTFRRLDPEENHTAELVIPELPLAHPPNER

Structure (SMILES)	IC50 [nM]
Cn1c(C(=O)Nc2cccc(-c3cccc(NC(=O)c4nc5c(n4C)CCN(CC4CC4)C5)c3Cl)c2Cl)nc2c1CCN(CC[C@H]1CC[C@H](C(=O)O)CC1)C2 [Example 87, trans-4-(2-(2-((2,2′-dichloro-3′-(5-(cyclopropylmethyl)-1-methyl-4,5,6,7-tetrahydro-1H-imidazo[4,5-c]pyridine-2-carboxamido)-[1,1′-biphenyl]-3-yl)carbamoyl)-1-methyl-1,4,6,7-tetrahydro-5H-imidazo[4,5-c]pyridin-5-yl)ethyl)cyclohexane-1-carboxylic acid]	≤ 10
CC(C)N1CCc2c(nc(C(=O)Nc3cccc(-c4cccc(NC(=O)c5nc6c(n5C)CCN(CC[C@H]5CC[C@H](C(=O)O)CC5)C6)c4Cl)c3Cl)n2C)C1 [Example 88, trans-4-(2-(2-((2,2′-dichloro-3′-(5-isopropyl-1-methyl-4,5,6,7-tetrahydro-1H-imidazo[4,5-c]pyridine-2-carboxamido)-[1,1′-biphenyl]-3-yl)carbamoyl)-1-methyl-1,4,6,7-tetrahydro-5H-imidazo[4,5-c]pyridin-5-yl)ethyl)cyclohexane-1-carboxylic acid]	≤ 10
Cn1c(C(=O)Nc2cccc(-c3cccc(NC(=O)c4nc5c(n4C)CCN(C4CCC4)C5)c3Cl)c2Cl)nc2c1CCN(CC[C@H]1CC[C@H](C(=O)O)CC1)C2 [Example 89, trans-4-(2-(2-((2,2′-dichloro-3′-(5-cyclobutyl-1-methyl-4,5,6,7-tetrahydro-1H-imidazo[4,5-c]pyridine-2-carboxamido)-[1,1′-biphenyl]-3-yl)carbamoyl)-1-methyl-1,4,6,7-tetrahydro-5H-imidazo[4,5-c]pyridin-5-yl)ethyl)cyclohexane-1-carboxylic acid]	≤ 10
Cn1c(C(=O)Nc2cccc(-c3cccc(NC(=O)c4nc5c(n4C)CCN(C4CCCC4)C5)c3Cl)c2Cl)nc2c1CCN(CC[C@H]1CC[C@H](C(=O)O)CC1)C2 [Example 90, trans-4-(2-(2-((2,2′-dichloro-3′-(5-cyclopentyl-1-methyl-4,5,6,7-tetrahydro-1H-imidazo[4,5-c]pyridine-2-carboxamido)-[1,1′-biphenyl]-3-yl)carbamoyl)-1-methyl-1,4,6,7-tetrahydro-5H-imidazo[4,5-c]pyridin-5-yl)ethyl)cyclohexane-1-carboxylic acid]	≤ 10
Cn1c(C(=O)Nc2cccc(-c3cccc(NC(=O)c4nc5c(n4C)CCN(C4CCCCC4)C5)c3Cl)c2Cl)nc2c1CCN(CC[C@H]1CC[C@H](C(=O)O)CC1)C2 [Example 91, trans-4-(2-(2-((2,2′-dichloro-3′-(5-cyclohexyl-1-methyl-4,5,6,7-tetrahydro-1H-imidazo[4,5-c]pyridine-2-carboxamido)-[1,1′-biphenyl]-3-yl)carbamoyl)-1-methyl-1,4,6,7-tetrahydro-5H-imidazo[4,5-c]pyridin-5-yl)ethyl)cyclohexane-1-carboxylic acid]	≤ 10
Cn1c(C(=O)Nc2cccc(-c3cccc(NC(=O)c4nc5c(n4C)CCN(C4CCOCC4)C5)c3Cl)c2Cl)nc2c1CCN(CC[C@H]1CC[C@H](C(=O)O)CC1)C2 [Example 92, trans-4-(2-(2-((2,2′-dichloro-3′-(1-methyl-5-(tetrahydro-2H-pyran-4-yl)-4,5,6,7-tetrahydro-1H-imidazo[4,5-c]pyridine-2-carboxamido)-[1,1′-biphenyl]-3-yl)carbamoyl)-1-methyl-1,4,6,7-tetrahydro-5H-imidazo[4,5-c]pyridin-5-yl)ethyl)cyclohexane-1-carboxylic acid]	≤ 10
Cn1c(C(=O)Nc2cccc(-c3cccc(NC(=O)c4nc5c(n4C)CCN(CC[C@H]4CC[C@H](C(=O)O)CC4)C5)c3Cl)c2Cl)nc2c1CCN(CCO)C2 [Example 93, trans-4-(2-(2-((2,2′-dichloro-3′-(5-(2-hydroxyethyl)-1-methyl-4,5,6,7-tetrahydro-1H-imidazo[4,5-c]pyridine-2-carboxamido)-[1,1′-biphenyl]-3-yl)carbamoyl)-1-methyl-1,4,6,7-tetrahydro-5H-imidazo[4,5-c]pyridin-5-yl)ethyl)cyclohexane-1-carboxylic acid]	≤ 10
C[C@H](O)CN1CCc2c(nc(C(=O)Nc3cccc(-c4cccc(NC(=O)c5nc6c(n5C)CCN(CC[C@H]5CC[C@H](C(=O)O)CC5)C6)c4Cl)c3Cl)n2C)C1 [Example 94, trans-4-(2-(2-((2,2′-dichloro-3′-(5-((S)-2-hydroxypropyl)-1-methyl-4,5,6,7-tetrahydro-1H-imidazo[4,5-c]pyridine-2-carboxamido)-[1,1′-biphenyl]-3-yl)carbamoyl)-1-methyl-1,4,6,7-tetrahydro-5H-imidazo[4,5-c]pyridin-5-yl)ethyl)cyclohexane-1-carboxylic acid]	≤ 10

Second part, the molecule after the results:

IC50 [nM]	Structure (SMILES)
≤ 10	C[C@@H](O)CN1CCc2c(nc(C(=O)Nc3cccc(-c4cccc(NC(=O)c5nc6c(n5C)CCN(CC[C@H]5CC[C@H](C(=O)O)CC5)C6)c4Cl)c3Cl)n2C)C1 [Example 95, trans-4-(2-(2-((2,2′-dichloro-3′-(5-((R)-2-hydroxypropyl)-1-methyl-4,5,6,7-tetrahydro-1H-imidazo[4,5-c]pyridine-2-carboxamido)-[1,1′-biphenyl]-3-yl)carbamoyl)-1-methyl-1,4,6,7-tetrahydro-5H-imidazo[4,5-c]pyridin-5-yl)ethyl)cyclohexane-1-carboxylic acid]
≤ 10	Cn1c(C(=O)Nc2cccc(-c3cccc(NC(=O)c4nc5c(n4C)CCN(C4CCOCC4)C5)c3Cl)c2Cl)nc2c1CCN(CCc1ccc(C(=O)O)cc1)C2 [Example 96, 4-(2-(2-((2,2′-dichloro-3′-(1-methyl-5-(tetrahydro-2H-pyran-4-yl)-4,5,6,7-tetrahydro-1H-imidazo[4,5-c]pyridine-2-carboxamido)-[1,1′-biphenyl]-3-yl)carbamoyl)-1-methyl-1,4,6,7-tetrahydro-5H-imidazo[4,5-c]pyridin-5-yl)ethyl)benzoic acid]
≤ 10	Cn1c(C(=O)Nc2cccc(-c3cccc(NC(=O)c4nc5c(n4C)CCN(C4CCC(C(=O)O)CC4)C5)c3Cl)c2Cl)nc2c1CCN(C1CCOCC1)C2 (centres unmarked) [Example 97, 4-(2-((2,2′-dichloro-3′-(1-methyl-5-(tetrahydro-2H-pyran-4-yl)-4,5,6,7-tetrahydro-1H-imidazo[4,5-c]pyridine-2-carboxamido)-[1,1′-biphenyl]-3-yl)carbamoyl)-1-methyl-1,4,6,7-tetrahydro-5H-imidazo[4,5-c]pyridin-5-yl)cyclohexane-1-carboxylic acid]
≤ 10	Cn1c(C(=O)Nc2cccc(-c3cccc(NC(=O)c4nc5c(n4C)CCN(C4CCC(C)(C(=O)O)CC4)C5)c3Cl)c2Cl)nc2c1CCN(C1CCOCC1)C2 (centres unmarked) [Example 98, 4-(2-((2,2′-dichloro-3′-(1-methyl-5-(tetrahydro-2H-pyran-4-yl)-4,5,6,7-tetrahydro-1H-imidazo[4,5-c]pyridine-2-carboxamido)-[1,1′-biphenyl]-3-yl)carbamoyl)-1-methyl-1,4,6,7-tetrahydro-5H-imidazo[4,5-c]pyridin-5-yl)-1-methylcyclohexane-1-carboxylic acid]
≤ 10	CCC1(C(=O)O)CCC(N2CCc3c(nc(C(=O)Nc4cccc(-c5cccc(NC(=O)c6nc7c(n6C)CCN(C6CCOCC6)C7)c5Cl)c4Cl)n3C)C2)CC1 (centres unmarked) [Example 99, 4-(2-((2,2′-dichloro-3′-(1-methyl-5-(tetrahydro-2H-pyran-4-yl)-4,5,6,7-tetrahydro-1H-imidazo[4,5-c]pyridine-2-carboxamido)-[1,1′-biphenyl]-3-yl)carbamoyl)-1-methyl-1,4,6,7-tetrahydro-5H-imidazo[4,5-c]pyridin-5-yl)-1-ethylcyclohexane-1-carboxylic acid]
≤ 10	Cc1c(NC(=O)c2nc3c(n2C)CCN(CCc2ccc(C(=O)O)cc2)C3)cccc1-c1cccc(NC(=O)c2nc3c(n2C)CCN(C)C3)c1Cl [Example 101, 4-(2-(2-((2′-chloro-3′-(1,5-dimethyl-4,5,6,7-tetrahydro-1H-imidazo[4,5-c]pyridine-2-carboxamido)-2-methyl-[1,1′-biphenyl]-3-yl)carbamoyl)-1-methyl-1,4,6,7-tetrahydro-5H-imidazo[4,5-c]pyridin-5-yl)ethyl)benzoic acid]
≤ 10	Cc1c(NC(=O)c2nc3c(n2C)CCN(CC24CCC(C(=O)O)(CC2)C4)C3)cccc1-c1cccc(NC(=O)c2nc3c(n2C)CCN(C)C3)c1Cl [Example 102, 4-((2-((2′-chloro-3′-(1,5-dimethyl-4,5,6,7-tetrahydro-1H-imidazo[4,5-c]pyridine-2-carboxamido)-2-methyl-[1,1′-biphenyl]-3-yl)carbamoyl)-1-methyl-1,4,6,7-tetrahydro-5H-imidazo[4,5-c]pyridin-5-yl)methyl)bicyclo[2.2.1]heptane-1-carboxylic acid]
≤ 10	Cc1c(NC(=O)c2nc3c(n2C)CCN(CC24CCC(C(=O)O)(CC2)CC4)C3)cccc1-c1cccc(NC(=O)c2nc3c(n2C)CCN(C)C3)c1Cl [Example 103, 4-((2-(2′-chloro-3′-(1,5-dimethyl-4,5,6,7-tetrahydro-1H-imidazo[4,5-c]pyridine-2-carboxamido)-2-methylbiphenyl-3-ylcarbamoyl)-1-methyl-6,7-dihydro-1H-imidazo[4,5-c]pyridin-5(4H)-yl)methyl)bicyclo[2.2.2]octane-1-carboxylic acid]
≤ 10	CCC1(C(=O)O)CCC(N2CCc3c(nc(C(=O)Nc4cccc(-c5cccc(NC(=O)c6nc7c(n6C)CCN(C)C7)c5Cl)c4C)n3C)C2)CC1 (centres unmarked) [Example 104, 4-(2-((2′-chloro-3′-(1,5-dimethyl-4,5,6,7-tetrahydro-1H-imidazo[4,5-c]pyridine-2-carboxamido)-2-methyl-[1,1′-biphenyl]-3-yl)carbamoyl)-1-methyl-1,4,6,7-tetrahydro-5H-imidazo[4,5-c]pyridin-5-yl)-1-ethylcyclohexane-1-carboxylic acid]
